Results reported in article PMC7321108, “1-Hydroxyanthraquinones Containing Aryl Substituents as Potent and Selective Anticancer Agents” (Molecules, 2020).
Like-named read-outs stand apart in the source and are kept apart here.

Experiments:
T98G glioblastoma cells = assay: MTT cytotoxicity assay, T98G; format: cell-based; conditions: Homo sapiens, 72 h incubation, mean ± SEM of three experiments, read-out: Cytotoxicity (GI50) against T98G
Method: (§1) The cytotoxicity of the synthesized series of 4-substituted 5, 13–17, 22, 23, 2-substituted 25–30 and 2,4-disubstituted 1-hydroxy-9,10-anthraquinones 33–38, 40–45 was evaluated against a panel of seven different human cancer cell lines (glioblastoma cancer cells, human prostate cancer cells, T-cellular human leucosis, breast cancer cells) and also a normal cell line of hTERT-immortalized lung fibroblasts, using conventional MTT assay. Doxorubicin (DOX) is clinically used to treat cancer as drug in world and have a very wide antitumor spectrum. That we use them as positive control compounds. The cytotoxicity was determined by measuring the concentration inhibiting human tumor cell viability by 50% (GI50).
(§2) The human cancer cells of the glioblastoma (U-87MG, SNB-19, T98G), prostate cancer cell line (LNCAP, DU-145), the cells of T-cellular human leucosis (MT-4) and human breast cancer cells (MDA-MB-231) were used in this study. The cells were cultured in the RPMI-1640 medium that contained 10% embryonic calf serum, L-glutamine (2 mmol/L), gentamicin ([…]) and lincomycin (30 mkg/mL) in a CO2 incubator at 37 °C. The tested compounds were dissolved in DMSO and added to the cellular culture at the required concentrations. Three wells were used for each concentration. The cells which were incubated without the compounds were used as a control. Cells were placed on 96-well microliter plates and cultivated at 37 °C in 5% CO2/95% air for 72 h. The cell viability was assessed through an MTT [3-(4,5-dimethylthiazol-2-yl)-[…]-2H-tetrazolium bromide] conversion assay. A total of 1% MTT was added to each well. Four hours later, DMSO was added and mixed for 15 min. Optical density (D) of the samples was measured on a BioRad 680 multi-well spectrophotometer (USA) at the wavelength of 450 nm. The 50% cytotoxic dose GI50) of each compound (i.e., the compound concentration that causes the death of 50% of cells in a culture, or decreases the optical density twice as compared to the control wells) was calculated from the data obtained. Statistical processing of the results was performed using the Microsoft Excel-2007, […] 6.0 and GraphPad Prism 5.0 programs. The results are given as an average value ± a deviation from the average (mean ± standard error of the mean (SEM)). Reliability of differences (p) was estimated using the Student t test. The differences with p < 0.05 were considered as reliable. The experimental results are given as the data average values obtained from three independently conducted experiments.

[1] = tested on: MDA-MB-231 breast cancer cells; assay: MTT cytotoxicity assay, MDA-MB-231; format: cell-based; conditions: Homo sapiens, 72 h incubation, mean ± SEM of three experiments, read-out: Cytotoxicity (GI50) against MDA-MB-231
Method: as §1, §2

[2] = MTT cytotoxicity assay, normal hTERT-immortalized lung fibroblasts; format: cell-based; conditions: human, hTERT-immortalized lung fibroblasts (normal cell line), 72 h incubation, mean ± SEM of three experiments, read-out: Cytotoxicity (GI50) against hTERT Lung Fibroblasts
Method: as §1, §2

DU-145 cells [3] = assay: DNA synthesis investigation (BrdU/PI flow cytometry), DU-145; format: cell-based, human; conditions: DU-145, treated at GI50 concentration, 24 h, BrdU 30 min
Method: (§4) Cell cycle analysis was performed by Flow Cytometry using BrdU and PI staining [63]. For this experiment cells were seeded in 6-well plates (30,000 per plate) and incubate for adhesion for 24 h. […] For the next step the BrdU stock was added at a final concentration of 30 µM and cells were incubated for 30 min. Cells were washed with PBS, harvested using trypsine and resuspended at 0.3 mL of PBS. Permeabilization of cell membrane was performed as follows: 0.7 mL of ice-cold 100% EtOH was added into each sample, mixed gently and incubate at 4 °C for 1 h. Cells were pelleted and supernatant was removed completely. Then 0.5 mL of 2 N HCl/0.5% Triton X-100 was added and samples were incubated 30 min at room temperature. Cells were pelleted again, supernatant was removed. The pellet was resuspended in 0.5 mL of 0.1 M sodium tetraborate for 2 min and cells were pelleted again, washed with 150 µL of PBS/1% BSA and resuspended in 50 µM 0.5% Tween 20/1% BSA/PBS. […] After that the samples were resuspended in 0.5 mL of PBS containing 10 mg/mL RNAse A and 20 mg/mL PI. Samples were incubated at room temperature for 30 min and analyzed immediately or store at 4 °C. CytoFLEX flow cytometer (Beckman Coulter) was used for analysis. The results are presented as a percentage of cell population standing in DNA synthesis process.

[4] = tested on: SNB-19 glioblastoma cells; assay: MTT cytotoxicity assay, SNB-19; format: cell-based; conditions: Homo sapiens, 72 h incubation, mean ± SEM of three experiments, read-out: Cytotoxicity (GI50) against SNB-19
Method: as §1, §2

[5] = tested on: DU-145 prostate cancer cells; assay: MTT cytotoxicity assay, DU-145; format: cell-based, human; conditions: 72 h incubation, mean ± SEM of three experiments, read-out: Cytotoxicity (GI50) against DU-145
Method: as §1, §2

[6] = tested on: U-87MG glioblastoma cells; assay: MTT cytotoxicity assay, U-87MG; format: cell-based; conditions: Homo sapiens, 72 h incubation, mean ± SEM of three experiments, read-out: Cytotoxicity (GI50) against U-87MG
Method: as §1, §2

DU-145 cells [7] = assay: Cell cycle analysis by flow cytometry (Hoechst 33342), DU-145; format: cell-based, human; conditions: DU-145, treated at GI50 concentration, 24 h
Method: We have carried out flow cytometric study of compounds 13, 16 and the isomeric compound 25 (Table 4, Figure 4G,H). Concentrations of 16 and 25 were taken as 5.4 and 14.5 μM, respectively, as per cytotoxic studies (Table 1). After examining the data for 13 (Figure 4G, Table 4), a good number of cells are arrested in Sub-G1, G0/G1 and S phase. Biosynthetic activity is very high during Sub-G1 phase; this is probably achieved by enhancing of apoptosis. The isomeric molecule 25 arrest G0/G1 and S phases, i.e., affecting the DNA synthesis/replication mechanism. Similarly, for 25 a different pattern is observed, i.e., variations at S and G2/M phases were observed, in comparison to the control. […] Some difference in the mechanism of operation of 13 and 25 has been observed during the progression of cell cycle like: Sub-G1 phase was highly disturbed by 13 and S and G0/G1 phases were highly disturbed by 25.
(§3) For cell cycle analysis cells were seeded in 6-well plates (30,000 per plate) and incubate for adhesion for 24 h. […] Cells were washed with PBS twice, harvested, pelleted and resuspended in 0.5 mL of PBS. For staining the Hoechst 33342 Ready Flow Reagent (Invitrogen) was used according to the instruction. CytoFLEX flow cytometer (Beckman Coulter) was used for analysis. The results are presented as a percentage of cell population standing in different stages of the cell cycle.

[8] = tested on: MT-4 cells of T-cellular human leucosis; assay: MTT cytotoxicity assay, MT-4; format: cell-based; conditions: MT4, 72 h incubation, mean ± SEM of three experiments, read-out: Cytotoxicity (GI50) against MT-4
Method: as §1, §2

[9] = tested on: LNCAP prostate cancer cells; assay: MTT cytotoxicity assay, LNCAP; format: cell-based, human; conditions: Homo sapiens, LNCaP, 72 h, 72 h incubation, mean ± SEM of three experiments, read-out: Cytotoxicity (GI50) against LNCAP
Method: as §1, §2

SNB-19 cells [10] = assay: DNA synthesis investigation (BrdU/PI flow cytometry), SNB-19; format: cell-based, human; conditions: SNB-19, treated at GI50 concentration, 24 h, BrdU 30 min
Method: as §4

SNB-19 cells [11] = assay: Cell cycle analysis by flow cytometry (Hoechst 33342), SNB-19; format: cell-based, human; conditions: SNB-19, treated at GI50 concentration, 24 h
Method: Due to the fact that the implementation of the antitumor potential of the currently existing antitumor agents is carried out by acting on various biological targets, at the next stage we performed the cell cycle analysis and DNA synthesis. Cell cycle analysis of 1-hydroxy-4-phenyl-9,10-anthraquinone 13, 1-hydroxy-4-(2,3-dimethoxyphenyl)-9,10- anthraquinone 16, 1-hydroxy-4-(furan-3-yl)-9,10-anthraquinone 23 and 1-hydroxy- 2-(2,3-dimethoxyphenyl)-9,10-anthraquinone 28 against SNB-19 cells for 24 h produced interesting results. After examining the data for compounds 13 and 16 (Table 3, Figure 4C,D), good number of cells are distributed in S phase, i.e., initiated DNA replication mechanism and also in G0/G1 phase, i.e., initial phase of cell cycle. G1 and G2 are the growth phases in cell cycle analysis, whereas S phase is a synthetic phase wherein DNA replication and DNA synthesis take place. The 2-aryl substituted compound 28 initiated the G0/G1 phase in analogy with doxorubicin and mitomycin. […] Further, compounds play a vital role in controlling the regulation of Sub-G1 and G2/M phases. Some difference in the mechanism of operation of 4-aryl substituted 13,16 and 2-aryl substituted 9,10-anthraquinones 28 has been observed during the progression of cell cycle like: S phase was highly disturbed by 13; G0/G1 phase was highly disturbed by 28. […] This observation can be explained by the influence on the cell repair systems that respond to the intercalation of compounds in DNA. […] Further, mitoxantrone promotes the arrest of S phase of cell cycle.
as §3

Structure (SMILES) | GI50 (T98G glioblastoma cells) [µM] | GI50 [1] [µM] | GI50 at 72 h [2] [µM] | Population (% Cell Distribution) DNA Synthesis (DU-145 cells [3]) [%] | GI50 [4] [µM] | GI50 [6] [µM] | Population (% Cell Distribution) G0/G1 (DU-145 cells [7]) [%] | Population (% Cell Distribution) G2/M (DU-145 cells [7]) [%] | Population (% Cell Distribution) S (DU-145 cells [7]) [%] | Population (% Cell Distribution) Sub-G1 (DU-145 cells [7]) [%] | Population (% Cell Distribution) Super-G2 (DU-145 cells [7]) [%] | GI50 [8] [nM] | GI50 [9] [µM] | Population (% Cell Distribution) DNA Synthesis (SNB-19 cells [10]) [%] | Population (% Cell Distribution) G0/G1 (SNB-19 cells [11]) [%] | Population (% Cell Distribution) G2/M (SNB-19 cells [11]) [%] | Population (% Cell Distribution) S (SNB-19 cells [11]) [%] | Population (% Cell Distribution) Sub-G1 (SNB-19 cells [11]) [%] | Population (% Cell Distribution) Super-G2 (SNB-19 cells [11]) [%] | other results
O=C1c2ccccc2C(=O)c2c1ccc(-c1ccccc1)c2O [Compound 25, 1-Hydroxy-2-phenylanthracene-9,10-dione] | 21.5 ± 0.92 | 16.5 ± 0.88 | 44.6 ± 2.46 | 20.27 | 6.8 ± 1.19 | > 100 | 32.3 | 7.4 | 32.4 | 25.9 | 2.0 | > 100000 | 32.1 ± 8.55 | – | – | – | – | – | – | melting point: 174.1 °C (dec.); GI50 ([5]; Homo sapiens, DU-145, 72 h): 14.5 ± 0.73 µM
COc1cccc2c1C(=O)c1c(O)c3c(c(O)c1C2=O)C[C@@](O)(C(=O)CO)C[C@@H]3O[C@H]1C[C@H](N)[C@H](O)[C@H](C)O1 [DOX, Doxorubicin, reference compound] | 4.5 ± 0.46 | 7.9 ± 0.51 | 2.2 ± 0.58 | 10.76 | 7.62 ± 0.69 | 6.11 ± 0.15 | 48.8 | 15.9 | 28.1 | 0.3 | 6.8 | 200 ± 40 | 2.11 ± 0.4 | 11.81 | 49.6 | 19.6 | 23.2 | 1.9 | 5.7 | GI50 [5]: 6.61 ± 0.34 µM
CO[C@@]12[C@H](COC(N)=O)C3=C(C(=O)C(C)=C(N)C3=O)N1C[C@@H]1N[C@@H]12 [Mitomycin C, reference compound] | – | – | – | 5.74 | – | – | 50.3 | 16.3 | 13.2 | 0.1 | 20.2 | – | – | 7.44 | 63.6 | 4.1 | 25.2 | 0.0 | 7.0 | –
